PubChem BioAssay AID1645868 (Buhrlage Lab, Dana-Farber Cancer Institute and Novartis …, 2021)
pIC50: −log10 of the molar value. Calls of active or inactive are those of the source.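 How the source made its calls: active means maximal percent inhibition of the deubiquitinase OTUD3 of at least 30% across the tested doses; inactive means the rest.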

Biological target: OTU domain-containing protein 3 (Homo sapiens) (UniProt Q5T2D3)
Test: Validation of screening hits, potency titration, in vitro enzymatic, OTU domain-containing protein 3 DUB inhibitors (AID 1645868)
Details: purified OTUD3, ubiquitin-rhodamine cleavage fluorescence, 2 h

Chain of OTU domain-containing protein 3 (Homo sapiens) (Q5T2D3 whole entry, looked up, the tested form may be a part): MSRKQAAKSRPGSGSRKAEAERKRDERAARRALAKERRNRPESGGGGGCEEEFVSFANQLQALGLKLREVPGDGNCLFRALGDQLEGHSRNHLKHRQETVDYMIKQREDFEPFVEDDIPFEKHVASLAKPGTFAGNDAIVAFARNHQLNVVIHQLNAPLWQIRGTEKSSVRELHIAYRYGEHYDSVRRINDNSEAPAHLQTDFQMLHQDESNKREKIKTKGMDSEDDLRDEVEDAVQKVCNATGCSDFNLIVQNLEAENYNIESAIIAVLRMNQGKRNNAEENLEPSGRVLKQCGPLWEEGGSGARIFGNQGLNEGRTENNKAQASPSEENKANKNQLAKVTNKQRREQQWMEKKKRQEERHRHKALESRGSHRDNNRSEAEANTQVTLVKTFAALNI

IC50 | pIC50 | Structure (SMILES)
> 50 µM (inactive) | – | CC(C)c1nc2sc3c(NCc4ccco4)ncnc3c2c2c1CCC2
> 50 µM (inactive) | – | O=C(CSc1nnc(-c2ccncc2)n1Cc1ccccc1)c1ccc2[nH]c(O)cc2c1
> 50 µM (inactive) | – | O=C(Cn1cncc(-c2nc(-c3ccccc3)cs2)c1=O)NC1CCCC1
– | 4.32 | CCc1cccc2c(C(=O)COc3ccc(C#N)cc3)c[nH]c12
– | 4.35 | CCOc1ccc(C(=O)Cn2c(=O)n(CC3CCCO3)c(=O)c3cc(OC)c(OC)cc32)cc1Cl (stereo not given)
> 50 µM (inactive) | – | NS(=O)(=O)c1cc(C(=O)OCC(=O)c2ccc3c(c2)OCCO3)ccc1Cl
– | 4.37 | CCOc1ccc2c(c1)c(=O)c(C(=O)c1ccccc1)cn2CC(=O)Nc1ccc2c(c1)OCCO2
> 50 µM (inactive) | – | CS(=O)(=O)N1CCCc2cc(C(=O)Nc3ccc4c(c3)OCO4)ccc21
> 50 µM (inactive) | – | Cc1cc(=O)n(C)c2c(O)c3c(cc12)c(C)cc(=O)n3C
– | 4.69 | CCC1=C(c2ccc(C)cc2)S(=O)(=O)NC1=NCC(=O)NC(C)c1ccccc1 (stereo not given)
> 50 µM (inactive) | – | CS(=O)(=O)n1nc(NCc2ccc(F)cc2)nc1NCc1ccc(F)cc1
> 50 µM (inactive) | – | CCOc1ccc(NC(=O)c2nc3c(=O)[nH]c4cc(C)ccc4n3n2)cc1
> 50 µM (inactive) | – | N#Cc1cccnc1N1CCN(C(=O)Nc2cccc3ccccc23)CC1
– | 4.62 | COc1ccccc1NC(=O)Cn1cc(C(=O)c2ccc(C)cc2)c(=O)c2cc(Cl)ccc21
> 50 µM (inactive) | – | COc1ccc2cc3c(nc2c1)OC(=O)N(CCc1cccc(F)c1)C3
> 50 µM (inactive) | – | COc1c2c(cc3cc(O)c4c(=O)cc(C)oc4c13)CCC2=O
> 50 µM (inactive) | – | COc1ccccc1NC(=O)CSC1=NC2(CCCCC2)Nc2ccccc21
> 50 µM (inactive) | – | Cc1ccc(C)c(NC(=O)CSc2nnc(-c3ccccn3)n2Cc2ccco2)c1
> 50 µM (inactive) | – | COc1ccccc1C(=O)NCC(c1ccc2c(c1)CCCN2C)N1CCCC1 (stereo not given)
> 50 µM (inactive) | – | O=C(Nc1cc(F)c2nc(N3CCOCC3)ccc2c1)c1ccc(Br)o1
> 50 µM (inactive) | – | COc1ccc(NC(=O)c2nnn(-c3cccc(C)c3)c2C)cc1
> 50 µM (inactive) | – | COCC(=O)Nc1cc(F)c2nc(N3CCOCC3)ccc2c1
– | 4.75 | CCCCNC(=O)C1Sc2nnc(-c3ccccc3)n2NC1c1ccccc1 (stereo not given)
– | 4.89 | O=C(COC(=O)c1ccc(Cl)cc1)Nc1ccc2[nH]c(=O)[nH]c2c1

IC50 | pIC50 | Structure (SMILES)
> 50 µM (inactive) | – | Cc1cc(NC(=O)COc2ccc3oc4ccccc4c3c2)no1
> 50 µM (inactive) | – | NS(=O)(=O)c1cccc(NC(=O)CN2CCCc3ccccc32)c1
> 50 µM (inactive) | – | N#Cc1ccc(NC(=O)Nc2cccn(Cc3c(F)cccc3Cl)c2=O)cc1
> 50 µM (inactive) | – | O=C(Nc1ccc(Br)cn1)c1nc2ccccc2nc1N1CCCCC1
> 50 µM (inactive) | – | O=C(NCC1CC1)C1CCCN(c2ccc(-c3ccccc3)nn2)C1 (stereo not given)
– | 4.67 | N#Cc1c(Cl)cccc1Oc1ccc(S(=O)(=O)N2CCC(O)CC2)cc1
> 50 µM (inactive) | – | N#Cc1cccc(NC(=O)Nc2cccn(Cc3ccccc3F)c2=O)c1
> 50 µM (inactive) | – | Cc1ccc2c(c1)N=C(c1ccc([N+](=O)[O-])cc1)CO2
– | 4.40 | O=C(COc1ccccc1-c1nnc(-c2ccccc2)o1)Nc1ccc(F)cc1F
> 50 µM (inactive) | – | COc1ccc(-c2cnnn2-c2ccc(NC(=O)c3c(F)cccc3F)cc2)cc1OC
> 50 µM (inactive) | – | Cc1nc(SCC#N)c2oc3ccccc3c2n1
– | 4.94 | COc1ccc(NC(=O)Cn2cc(C(=O)c3ccc(C)cc3)c(=O)c3ccccc32)cc1
– | 4.31 | COc1cccc(NC(=O)Nc2ccc(CCc3nc4ccccc4[nH]3)cc2)c1
> 50 µM (inactive) | – | CN1C(=O)c2cc(NC(=O)c3ccccc3Cl)ccc2Oc2ccccc21
> 50 µM (inactive) | – | CCCc1nc2sc3c(NC4CCCCC4)ncnc3c2c2c1CCC2
– | 5.52 | COc1cc(C(=O)NC(Cc2ccccc2)c2nc3ccccc3[nH]2)cc(OC)c1OC (stereo not given)
– | 5.50 | CN(Cc1ccccc1)S(=O)(=O)c1ccc2[nH]cc(C(=O)NCc3cccs3)c(=O)c2c1
> 50 µM (inactive) | – | COc1cnc(CSc2ncccn2)cc1OCC(=O)Nc1cc(C)ccc1C
> 50 µM (inactive) | – | CCOc1cc(C2C3=C(CC(C)(C)CC3=O)Nc3onc(C)c32)ccc1O (stereo not given)
> 50 µM (inactive) | – | COc1ccc(C2CC(=O)Nc3n[nH]c(-c4ccccc4)c32)cc1OC (stereo not given)
> 50 µM (inactive) | – | O=c1cc(CNc2ccc(Br)cc2)nc2nc(-c3ccccc3)[nH]n12
> 50 µM (inactive) | – | COc1ccccc1N1CCN(C(=O)c2ccc3c(c2)N(Cc2cc(C)ccc2C)C(=O)c2ccccc2S3=O)CC1 (stereo not given)
> 50 µM (inactive) | – | O=C(Nc1ccc(SCc2nnc(-c3ccccc3)o2)cc1)C1CC1
> 50 µM (inactive) | – | N#Cc1c(SCCO)nc(N2CCCC2)c2c1CCCC2

IC50 | pIC50 | Structure (SMILES)
> 50 µM (inactive) | – | COc1ccc(C2C(C(=O)Nc3ccccc3OC)=C(C)Nc3nnnn32)cc1Br (stereo not given)
– | 4.71 | O=C(CC1C(=O)N(Cc2ccccc2)c2nc3ccccc3n21)NCCc1ccccc1 (stereo not given)
> 50 µM (inactive) | – | O=C(Nc1ccccc1)c1cn2c3c(cccc3c1=O)CC2
> 50 µM (inactive) | – | CCC(C)(C)C1CCC2(CC1)N=C(N)Nc1nc3ccccc3n12 (stereo not given)
– | 4.60 | CC(=O)Nc1ccc(S(=O)(=O)NCc2ccc(C(=O)NCc3ccc(C)cc3)cc2)cc1
> 50 µM (inactive) | – | Cc1cc(C(=O)N2CCOCC2)c(C)n1-c1ccc(O)cc1
> 50 µM (inactive) | – | Cc1cc(C)c2cc(CN(CCc3ccccc3)C(=O)Nc3ccccc3)c(=O)[nH]c2c1
> 50 µM (inactive) | – | COc1ccc(CNC(=O)CCc2nc3sc4c(c3c(=O)[nH]2)CCCCC4)cc1
> 50 µM (inactive) | – | O=C(O)C1CCN(Cc2c(-c3ccco3)nc3ccc(Cl)cn23)CC1
> 50 µM (inactive) | – | O=C(Cn1c(=O)n(Cc2ccccc2)c(=O)c2ncccc21)NCc1ccccc1Cl
> 50 µM (inactive) | – | CC1CCN(c2cc(-n3cnc(C(=O)N4CCCC(C)C4)c3)ncn2)CC1 (stereo not given)
> 50 µM (inactive) | – | O=C(Cn1c(=O)n(Cc2ccc3c(c2)OCO3)c(=O)c2ncccc21)c1ccccc1
> 50 µM (inactive) | – | COc1ccc(C)cc1NC(=O)C(NS(=O)(=O)c1ccc2c(c1)CCN2C(C)=O)C(C)C (stereo not given)
> 50 µM (inactive) | – | COc1ccccc1CNC(=O)C1CCCN(c2nc3ccsc3c(=O)s2)C1 (stereo not given)
– | 5.33 | CC(c1ccccc1)n1c(-c2ccc(F)cc2)nc2c(c(=O)c3ccccc3n2C)c1=O (stereo not given)
> 50 µM (inactive) | – | O=C(CNS(=O)(=O)c1ccc(F)cc1)N1CCCC(c2nnc3ccccn23)C1 (stereo not given)
> 50 µM (inactive) | – | O=C(O)COc1ccccc1/C=C1\CCc2c1nc1ccccc1c2C(=O)O
– | 4.54 | O=C(COc1ccc(Cl)cc1)Nc1noc(-c2ccccc2)n1
> 50 µM (inactive) | – | CC(C)Cn1cc(OC(=O)c2ccc(F)cc2)c2c1nc(-c1ccc(F)cc1)n1c3ccccc3nc21
> 50 µM (inactive) | – | CN(C(=O)CSc1nnc(-c2cc3ccccc3n2C)o1)c1ccccc1
> 50 µM (inactive) | – | COCCCN1CCS(=O)(=O)c2c(Cl)c(F)nc(Oc3ccc(C#N)cc3)c21
> 50 µM (inactive) | – | CC1OC2CC(O)C1(O)C1=C2C(O)=C(C(N)=O)C(=N)C1=O (stereo not given)
> 50 µM (inactive) | – | Cc1cc(C)c2nc3c(cc2c1)CN(Cc1ccco1)C(=O)O3
> 50 µM (inactive) | – | O=C(c1ccco1)N1CCC2(CC1)CC1(CO2)Nc2ccccc2-n2cccc21 (stereo not given)

IC50 | pIC50 | Structure (SMILES)
– | 4.55 | CC(C)c1cc2c(c(O)c1O)[C@@]13CCCC(C)(C)[C@@H]1C[C@@H]2OC3=O
– | 5.48 | CCCC[C@@H](C)/C=C(C)/C=C(\C)C(=O)NC1=C[C@](O)(/C=C/C=C/C=C/C(=O)NC2=C(O)CCC2=O)[C@@H]2O[C@@H]2C1=O
– | 4.47 | COc1ccc(NC(=O)C2CC(=O)Nc3c(-c4ccc(Cl)cc4)cnn32)c(OC)c1 (stereo not given)
> 50 µM (inactive) | – | CCCc1nc2sc3c(NCc4ccco4)ncnc3c2c2c1CCC2
> 50 µM (inactive) | – | COc1cc(COc2ccc3c(C)c(CC(=O)N4CC[C@@]5(O)CCCC[C@H]5C4)c(=O)oc3c2C)cc(OC)c1OC
– | 4.49 | Cc1cccc(-n2nc(C)c3c2NC(=O)CC3C(=O)c2cc3ccccc3o2)c1 (stereo not given)
> 50 µM (inactive) | – | CC(=O)c1ccccc1NC(=O)COc1ccc(-c2ccc(C#N)cc2)cc1
> 50 µM (inactive) | – | CCCC(=O)Nc1ccc(SCc2nnc(-c3ccccc3)o2)cc1
> 50 µM (inactive) | – | O=C(Nc1ccc2c(c1)OCCO2)c1cc(CN2CCCC2)on1
> 50 µM (inactive) | – | Cc1c(C(=O)Nc2ccc(-c3nnc4n3CCCCC4)cc2)oc2c1ccc1ccccc12
– | 4.39 | Cc1cccc(NC(=O)Cn2c(N3CCOCC3)nc3cc(C)n(C)c3c2=O)c1
> 50 µM (inactive) | – | Cc1cc(C)cc(-n2cnc3cc(C(=O)NCCC4=CCCCC4)ccc32)c1
> 50 µM (inactive) | – | O=C(Cn1nnc(-c2ccc(F)cc2)n1)NCCc1ccccc1
– | 4.39 | O=C(Nc1ccccc1Cl)N(Cc1cc2cc3c(cc2[nH]c1=O)OCCO3)C1CCCCC1
> 50 µM (inactive) | – | COc1ccc(-c2cc(-c3nnc4n3CCCCC4)n(-c3ccccc3)n2)cc1
– | 4.60 | Cc1ccc2c(c1)[C@]1(C(=O)N2)[C@@H](C(=O)c2ccccc2)[C@]2(C(=O)Nc3ccccc32)[C@@H]2CCCN21
> 50 µM (inactive) | – | O=c1c2c(ccn1Cc1cc(F)ccc1F)ccn2Cc1cccnc1
> 50 µM (inactive) | – | N#Cc1cc(C(=O)c2ccc(Cl)cc2)c[nH]1
– | 5.32 | Cc1cc(O)c2c3c(c(O)cc2c1)C(=O)c1c(O)cccc1C3=O
> 50 µM (inactive) | – | Cc1nn(-c2ccccc2)c2c1N=C1C(Cl)=CC(Cl)=CN1C21C(=O)Nc2ccccc21 (stereo not given)
> 50 µM (inactive) | – | CCc1nc2cc(NC(=O)c3cccc(N4CCCC4=O)c3)ccc2n1C

Structure (SMILES) | IC50 | pIC50
Cn1ccnc1CN1C[C@H]2CCN(c3ncccn3)C[C@H]2C1 | > 50 µM (inactive) | –
CO[C@H]1[C@@H](O)[C@H](C)O[C@H](O[C@H]2[C@H](Oc3cccc4c(O)c5c(=O)oc6ccc(C)c7c(=O)oc(c34)c5c67)O[C@H](C)[C@H](O)[C@@H]2O)[C@@H]1O | > 50 µM (inactive) | –
